Values joined by “and” are separate entries in the source; they are usually repeats but may differ in a detail not shown here. Equal entries are not always repeated.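 Each compound was tested at five concentrations against cells in 96-well plates for 48 hours. GI50 is the concentration that inhibits growth by half. At the TGI there is no net growth.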
Key:
Experiment in all cases: growth of human tumour cells (NCI), 48 h
OVCAR-4 ovarian = test system: OVCAR-4 ovarian
MDA-N = test system: MDA-N
RXF 393 renal = test system: RXF 393 renal
SN12C renal = test system: SN12C renal
HCC-2998 colon = test system: HCC-2998 colon
MOLT-4 leukemia = test system: MOLT-4 leukemia
OVCAR-8 ovarian = test system: OVCAR-8 ovarian
MDA-MB-231 breast = test system: MDA-MB-231 breast
HOP-92 NSCLC = test system: HOP-92 NSCLC
KM20L2 colon = test system: KM20L2 colon

| Structure (SMILES) | TGI (OVCAR-4 ovarian) | TGI (MDA-N) [µM] | TGI (RXF 393 renal) | TGI (SN12C renal) | TGI (HCC-2998 colon) | TGI (MOLT-4 leukemia) | TGI (OVCAR-8 ovarian) | TGI (MDA-MB-231 breast) | TGI (HOP-92 NSCLC) | GI50 (OVCAR-4 ovarian) | GI50 (RXF 393 renal) | GI50 (SN12C renal) | GI50 (HCC-2998 colon) | GI50 (MOLT-4 leukemia) | GI50 (OVCAR-8 ovarian) | GI50 (MDA-MB-231 breast) | GI50 (HOP-92 NSCLC) | TGI (KM20L2 colon) [µM] |
| --- | --- | --- | --- | --- | --- | --- | --- | --- | --- | --- | --- | --- | --- | --- | --- | --- | --- | --- |
| c1ccc(-c2cc(C3CO3)c3ccccc3n2)cc1 (stereo unspecified) | 37.2 µM | 39.4 | 28.3 µM | 31.3 µM | 35.2 µM | 49.7 µM | 43.2 µM | 51.7 µM | 39.2 µM | – | – | – | – | – | – | – | – | – |
| Oc1c(CN2CCCC2)cc(COCc2ccc(Br)cc2)c2cccnc12 | 3.02 µM | – | 3.41 µM | 5.86 µM | 3.61 µM | 2.67 µM | 1.94 µM | 2.37 µM | 7.56 µM | 0.508 µM | 1.04 µM | 0.989 µM | 0.901 µM | 0.495 µM | 0.398 µM | 0.851 µM | 1.93 µM | – |
| CC(=O)O[C@H](C[C@H](C(C)C)N(C)C(=O)[C@@H](NC(=O)[C@H]1CCCCN1C)C(C)C)c1nc(C(=O)N[C@@H](Cc2ccccc2)C[C@H](C)C(=O)O)c(C(C)C)s1 | > 33.3 µM | – | > 33.3 µM | > 33.3 µM | 2 µM | > 33.3 µM | > 33.3 µM | > 15.5 µM | > 15.5 µM | 0.00673 µM | < 0.00333 µM | < 0.00333 µM | < 0.00333 µM | < 0.00333 µM | < 0.00333 µM | < 0.00333 µM | 0.00521 µM | – |
| COc1ccc2c(c1)[n+]([O-])c(-c1ccccc1)c(N)[n+]2[O-] | > 100 µM | – | – | > 100 µM | > 100 µM | > 100 µM | > 100 µM | – | – | – | – | – | – | – | – | – | – | > 100 |
| CN1CCN(c2ccc3nc(-c4c(N)c5c(F)cccc5[nH]c4=O)[nH]c3c2)CC1 | 4.55 µM and > 10 µM and 10.9 µM | – | 1.19 µM and 0.632 µM and 1.18 µM | 5.3 µM and > 5.12 µM and 5.82 µM | 5.24 µM and > 4.09 µM and 6.58 µM | 3.6 µM and 1.52 µM and 4.54 µM | 3.21 µM and > 5.17 µM and 12.5 µM | 5 µM and > 4.19 µM and 8.57 µM | 4.56 µM and > 2.93 µM and 5.82 µM | 0.622 µM and 0.498 µM and 0.646 µM | 0.216 µM and 0.212 µM and 0.282 µM | 0.413 µM and 0.393 µM and 0.62 µM | 1.33 µM and 0.867 µM and 1.36 µM | 0.392 µM and 0.322 µM and 0.42 µM | 1.26 µM and 0.874 µM and 1.67 µM | 1.32 µM and 1.14 µM and 2.05 µM | 0.621 µM and 0.422 µM and 0.645 µM | – |
| Cc1ccc(C)c(NC(=O)NCc2ccc(Cl)cc2)c1 | > 100 µM | > 100 | 28.6 µM | > 100 µM | – | > 36.2 µM | > 100 µM | > 92 µM | 63.5 µM | – | – | – | – | – | – | – | – | – |
| COC(=O)[C@]12CC[C@@H](C)[C@H](C)[C@@H]1C1=CC[C@@H]3[C@@]4(C)C(C=O)=C[C@@](C)(COC(=O)c5ccco5)[C@@H]4C(=O)C[C@@]3(C)[C@]1(C)CC2 | > 100 µM | – | 35.3 µM | > 100 µM | > 100 µM | 7.8 µM | > 100 µM | > 100 µM | 91 µM | 3.57 µM | 3.35 µM | 8.69 µM | 6.22 µM | 2.08 µM | 5.55 µM | 4.97 µM | 1.37 µM | – |
| O=C(Nc1ccc(Oc2ccc3nc(NC(=O)c4ccccc4)[nH]c3c2)cc1)Nc1cc(C(F)(F)F)ccc1F | 2.71 µM | – | 8.49 µM | > 25 µM | > 21.5 µM | 3.83 µM | 5.08 µM | > 22.9 µM | 8.81 µM | 0.678 µM | 1.11 µM | 1.75 µM | 2.38 µM | 0.68 µM | 0.764 µM | 2.05 µM | 0.887 µM | – |
| CNC(=O)c1ccc2cc(C3(O)CCn4cncc43)ccc2c1 (stereo unspecified) | > 100 µM | – | > 100 µM | > 100 µM | > 100 µM | > 100 µM | > 100 µM | > 100 µM | > 100 µM | > 100 µM | > 100 µM | > 100 µM | > 100 µM | > 100 µM | > 100 µM | > 100 µM | > 100 µM | – |
| COc1ccc2c(c1)C(=O)c1c-2c(Nc2ccc(C(C)=O)cc2)nc2ccccc12 | > 100 µM | – | 9.2 µM | > 100 µM | > 100 µM | > 100 µM | 64.9 µM | 29.5 µM | 73.7 µM | 58.3 µM | 2.54 µM | 33.4 µM | 97.1 µM | > 100 µM | 18 µM | 11.4 µM | 24 µM | – |
| CC(=O)c1c(C)n(C)c2c1nnc1ccccc12 | > 100 µM | > 100 | > 100 µM | > 100 µM | > 100 µM | – | > 100 µM | > 100 µM | > 100 µM | – | – | – | – | – | – | – | – | – |
| COc1ccc(-c2nn(-c3cccc(NC(=O)c4ccc5c(c4)OCCO5)c3)cc2-c2ccncc2)cc1Cl | > 100 µM | – | 4.52 µM | > 100 µM | 17.9 µM | 25.7 µM | > 100 µM | 12.2 µM | 4.99 µM | 4.39 µM | 1.23 µM | 2.92 µM | 5.48 µM | 2.46 µM | 2.47 µM | 2.11 µM | 0.335 µM | – |
| O=S(=O)(O)c1ccc(-c2nnc(-c3ccccn3)nc2-c2ccc(S(=O)(=O)O)o2)o1 | > 100 µM | > 100 | > 100 µM | > 100 µM | – | > 100 µM | > 100 µM | > 100 µM | > 100 µM | – | – | – | – | – | – | – | – | – |
| COc1ccc(N=Nc2c(-c3ccccc3)nn(C(=O)CC(=O)Nc3cccc(Cl)c3)c2-c2ccccc2)cc1 | > 100 µM | – | – | > 100 µM | 80.4 µM | > 100 µM | > 100 µM | – | > 100 µM | – | – | – | – | – | – | – | – | > 100 |
| CN(C)c1ccc(/C=C2\N=C(c3ccc([N+](=O)[O-])cc3)OC2=O)cc1 | > 100 µM | > 100 | > 100 µM | > 100 µM | 72.4 µM | > 100 µM | > 100 µM | > 100 µM | 97 µM | – | – | – | – | – | – | – | – | – |
| O=c1cccccc1NCCCCCCNc1cccccc1=O | > 100 µM | – | – | > 100 µM | > 100 µM | > 100 µM | > 100 µM | – | – | – | – | – | – | – | – | – | – | > 100 |
| CC(C)(C#N)c1cc(F)cc(C(=O)Nc2cc(Nc3ncccc3-c3ncnc4nc[nH]c34)ccc2F)c1 | > 10 µM | – | > 10 µM | > 10 µM | > 10 µM | > 10 µM | > 10 µM | 4.8 µM | 0.842 µM | 4.71 µM | 2.22 µM | 3.11 µM | 1.12 µM | 4.27 µM | 3.16 µM | 0.306 µM | 0.137 µM | – |
| Cc1cccc(C(=O)/C=C/SC(=NC#N)SCc2ccccc2)c1 | > 100 µM | – | 57.6 µM | 41.3 µM | 39.4 µM | > 100 µM | > 100 µM | 41.5 µM | 47.9 µM | > 100 µM | 22.7 µM | 20.4 µM | 19.3 µM | 6.72 µM | 35.6 µM | 20 µM | 12.3 µM | – |

Reference: PubChem BioAssay (NCI)
